The values that follow are results of earlier work, collected in patent EP1479382A1, “Oral pharmaceutical compositions containing taxanes and methods for treatment employing the same” (IVAX Research, Inc., priority 1999, dated 2000).

Where two headings read alike, the source gives them in different places.

Turning to `CC(=O)O[C@H]1C(=O)[C@@]2(C)[C@H]([C@H](OC(=O)c3ccccc3)[C@]3(O)C[C@H](OC(=O)[C@H](O)[C@@H](NC(=O)c4ccccc4)c4ccccc4)C(C)=C1C3(C)C)[C@]1(OC(C)=O)CO[C@@H]1C[C@@H]2O` [paclitaxel], the “inhibition of protein isoprenylation occurs at levels of” value is “about 0.03 µM” with protein isoprenylation and “about 25 ng/ml” with protein isoprenylation (same level expressed in ng/ml). For the same compound, the “inhibition of tubulin disassembly occurs at levels of” value in the data set with tubulin is on record as “about 0.1 µM”; with tubulin (same level expressed in ng/ml), “about 85 ng/ml”.
